Experimental data reported in patent US11357229B2, “Composition, uses and preparation process thereof, as well as method to ensure high corn crop yield” (priority 2011, dated 2022).

Assays:
Assay type in all cases: in vivo, Zea mays
corn [1] = experiment: Ethephon applied to corn at stage V8, Nova Mutum; methomyl and pyraclostrobin+epoxyconazole added in all treatments; details: for Increased Yield: 100,000 plants/ha vs control at normal density
Protocol: Example 1—Effect of Growth Regulator Ethephon Applied to Corn at the Stage of Development V8
(§1) In the moment of the application, the insecticide methomyl (215 g ha^−1 a.i.) and the fungicide pyraclostrobin+epoxyconazole (99.75+37.5 g ha^−1 a.i.) were added in all treatments, including the control.

corn [2] = experiment: Ethephon applied to corn at stage V6, Nova Mutum; chlorantraniliprole and cyproconazole+azoxystrobin added in all treatments; details: for Increased Yield: 100,000 plants/ha vs control at normal density
Protocol: Example 2—Effect of Growth Regulator Ethephon Applied to Corn at the Stage of Development V6
(§2) In the moment of the application, the insecticide chlorantraniliprole (25 g ha^−1 a.i.) and the fungicide cyproconazole+azoxystrobin (24+60 g ha^−1 a.i.) were added in all treatments, including the control.

corn [3] = experiment: Ethephon+cyclanilide applied to corn at stage V8, Nova Mutum; methomyl and pyraclostrobin+epoxyconazole added in all treatments; details: estimation at 100,000 plants per hectare vs control at normal density of sowing (Table 6)
Protocol: Example 3—Effect of Growth Regulator Ethephon+Cyclanilide Applied to Corn at the Stage of Development V8
as §1

corn [4] = experiment: BF 428-5 applied to corn at stage V6, Nova Mutum; chlorantraniliprole and cyproconazole+azoxystrobin added in all treatments; details: V6; 30 DAA; all treatments (Table 11)
Protocol: Example 6—Effect of Growth Regulator BF 428-5 Applied to Corn at the Stage of Development V6
as §2

corn plants = experiment: Growth regulator applied in the late vegetative stage of corn (V6-V9), inventors' finding; details: application in the late vegetative stage (V6-V9)
Text: The solution to such problems related to corn crops would be to limit plant growth through the use of plant growth regulators, commonly used in other crops (cotton, wheat), but without any tradition in corn crop in order to provide the cultivation of high densities of corn plants per hectare with a view to achieving considerable increase in the crop's yield potential, as well as to improving pest and disease control in the crop.

Structure (SMILES): O=P(O)(O)CCCl [Ethephon, 2-chloroethylphosphonic acid]
- effects on the corn plant (corn [1]; V8): reduction in shoot length, increased formation of adventitious roots, strengthening of the stem, strengthening of the root system, increased ventilation in the culture, proper development of male and female inflorescences
- effect on length and diameter of ears of corn (corn [1]; V8 (Table 1)): reduces
- yield reduction (corn [1]; V8 (Table 1)): not significant
- shoot length (corn [1]; V8, 30 DAA, all treatments with application of ethephon (Table 1)): less than or equal to 159.1 cm
- Ear Diameter (corn [1]; V8, 216 g ha^−1 a.i.): 50.4 mm
- Ear Length (corn [1]; V8, 216 g ha^−1 a.i.): 25.8 cm
- Yield (corn [1]; V8, 216 g ha^−1 a.i.): 4335.6 kg/ha
- Height (shoot length) (corn [1]; V8, 216 g ha^−1 a.i., 30 DAA): 157.3 cm
- Population of corn plants 60,000 plants/ha, kg/corn plant (corn [1]; V8, 216 g ha^−1 a.i.): 0.072 kg/corn plant
- Population of corn plants 100,000 plants/ha, kg/corn plant (corn [1]; V8, 216 g ha^−1 a.i.): 0.072 kg/corn plant
- Yield estimates 100,000 plants/ha (corn [1]; V8, 216 g ha^−1 a.i.): 7226.0 kg/ha
- Increased Yield (corn [1]; V8, 216 g ha^−1 a.i.): 42.4%
- Ear Diameter (corn [1]; V8, 360 g ha^−1 a.i.): 51.6 mm
- Ear Length (corn [1]; V8, 360 g ha^−1 a.i.): 25.6 cm
- Yield (corn [1]; V8, 360 g ha^−1 a.i.): 4253.3 kg/ha
- Height (shoot length) (corn [1]; V8, 360 g ha^−1 a.i., 30 DAA): 153.9 cm
- Population of corn plants 60,000 plants/ha, kg/corn plant (corn [1]; V8, 360 g ha^−1 a.i.): 0.071 kg/corn plant
- Population of corn plants 100,000 plants/ha, kg/corn plant (corn [1]; V8, 360 g ha^−1 a.i.): 0.071 kg/corn plant
- Yield estimates 100,000 plants/ha (corn [1]; V8, 360 g ha^−1 a.i.): 7088.8 kg/ha
- Increased Yield (corn [1]; V8, 360 g ha^−1 a.i.): 39.7%
- Ear Diameter (corn [1]; V8, 576 g ha^−1 a.i.): 50.7 mm
- Ear Length (corn [1]; V8, 576 g ha^−1 a.i.): 25.4 cm
- Yield (corn [1]; V8, 576 g ha^−1 a.i.): 4680.0 kg/ha
- Height (shoot length) (corn [1]; V8, 576 g ha^−1 a.i., 30 DAA): 152.2 cm
- Population of corn plants 60,000 plants/ha, kg/corn plant (corn [1]; V8, 576 g ha^−1 a.i.): 0.078 kg/corn plant
- Population of corn plants 100,000 plants/ha, kg/corn plant (corn [1]; V8, 576 g ha^−1 a.i.): 0.078 kg/corn plant
- Yield estimates 100,000 plants/ha (corn [1]; V8, 576 g ha^−1 a.i.): 7800.0 kg/ha
- Increased Yield (corn [1]; V8, 576 g ha^−1 a.i.): 53.7%
- yield increases (corn [1]; V8, estimation at 100,000 plants per hectare vs control at normal density of sowing (Table 2)): more than 39%
- effects on the corn plant (corn [2]; V6): reduction in shoot length, increased formation of adventitious roots, strengthening of the stem, strengthening of the root system, increased ventilation in the culture, proper development of male and female inflorescences
- effect on length and diameter of ears of corn (corn [2]; V6 (Table 3)): reduces
- yield reduction / increase (corn [2]; V6 (Table 3)): yield reduction was significant for some treatments, and the yield increase was also significant for some treatments
- shoot length (corn [2]; V6, 30 DAA, all treatments with application of ethephon (Table 3)): less than or equal to 152.5 cm
- Ear Diameter (corn [2]; V6, 216 g ha^−1 a.i.): 37.9 mm
- Ear Length (corn [2]; V6, 216 g ha^−1 a.i.): 21.4 cm
- Yield (corn [2]; V6, 216 g ha^−1 a.i.): 1906.7 kg/ha
- Height (shoot length) (corn [2]; V6, 216 g ha^−1 a.i., 30 DAA): 144.3 cm
- Population of corn plants 60,000 plants/ha, kg/corn plant (corn [2]; V6, 216 g ha^−1 a.i.): 0.032 kg/corn plant
- Population of corn plants 100,000 plants/ha, kg/corn plant (corn [2]; V6, 216 g ha^−1 a.i.): 0.032 kg/corn plant
- Yield estimates 100,000 plants/ha (corn [2]; V6, 216 g ha^−1 a.i.): 3177.8 kg/ha
- Increased Yield (corn [2]; V6, 216 g ha^−1 a.i.): 10.1%
- Ear Diameter (corn [2]; V6, 360 g ha^−1 a.i.): 36.7 mm
- Ear Length (corn [2]; V6, 360 g ha^−1 a.i.): 21.1 cm
- Yield (corn [2]; V6, 360 g ha^−1 a.i.): 3553.3 kg/ha
- Height (shoot length) (corn [2]; V6, 360 g ha^−1 a.i., 30 DAA): 148.5 cm
- Population of corn plants 60,000 plants/ha, kg/corn plant (corn [2]; V6, 360 g ha^−1 a.i.): 0.059 kg/corn plant
- Population of corn plants 100,000 plants/ha, kg/corn plant (corn [2]; V6, 360 g ha^−1 a.i.): 0.059 kg/corn plant
- Yield estimates 100,000 plants/ha (corn [2]; V6, 360 g ha^−1 a.i.): 5922.2 kg/ha
- Increased Yield (corn [2]; V6, 360 g ha^−1 a.i.): 105.2%
- Ear Diameter (corn [2]; V6, 576 g ha^−1 a.i.): 37.7 mm
- Ear Length (corn [2]; V6, 576 g ha^−1 a.i.): 23.3 cm
- Yield (corn [2]; V6, 576 g ha^−1 a.i.): 3540.0 kg/ha
- Height (shoot length) (corn [2]; V6, 576 g ha^−1 a.i., 30 DAA): 144.9 cm
- Population of corn plants 60,000 plants/ha, kg/corn plant (corn [2]; V6, 576 g ha^−1 a.i.): 0.059 kg/corn plant
- Population of corn plants 100,000 plants/ha, kg/corn plant (corn [2]; V6, 576 g ha^−1 a.i.): 0.059 kg/corn plant
- Yield estimates 100,000 plants/ha (corn [2]; V6, 576 g ha^−1 a.i.): 5900.0 kg/ha
- Increased Yield (corn [2]; V6, 576 g ha^−1 a.i.): 104.4%
- yield increases (corn [2]; V6, estimation at 100,000 plants per hectare vs control at normal density of sowing (Table 4)): more than 10.1%
- yield increases (corn [3]): more than 44.4%
- shoot length (corn [4]): less than or equal to 206.0 cm
- root system (corn plants): stronger root system
